One assay concerns CCRF-CEM. The assay can be described thus: Growth inhibition of human CCRF-CEM cells incubated for 48 hrs by sulforhodamine B assay. The format is functional, cell-based. A general note: Sulforhodamine B stains cellular protein and so reports cell mass.
The next assay has as its system NCI-H226. The assay can be described thus: Growth inhibition of human NCI-H226 cells assessed as cell growth at 0.1 uM incubated for 48 hrs by sulforhodamine B assay relative to control. In kind it is functional. To be noted: NCI-H226, 48 h, read-out: Activity.
A further assay relates to SF-295. Briefly: Growth inhibition of human SF295 cells incubated for 48 hrs by sulforhodamine B assay. In kind it is functional, cell-based. Particulars: SF-295, 48 h.
The next assay has as its system A498. The assay can be described thus: Growth inhibition of human A498 cells assessed as cell growth at 0.01 uM incubated for 48 hrs by sulforhodamine B assay relative to control. In kind it is functional. To be noted: A498, 48 h, read-out: Activity.
The subject of another assay is K562. Briefly: Growth inhibition of human K562 cells assessed as cell growth at 0.01 uM incubated for 48 hrs by sulforhodamine B assay relative to control. In kind it is functional. To be noted: K562, 48 h, read-out: Activity.
The test system of another assay is HT-29. The assay can be described thus: Growth inhibition of human HT-29 cells assessed as cell growth at 1 uM incubated for 48 hrs by sulforhodamine B assay relative to control. In kind it is functional. Particulars: HT-29, 48 h, read-out: Activity.
In the next assay the test system is HOP-62. The assay can be described thus: Growth inhibition of human HOP62 cells assessed as cell growth at 0.1 uM incubated for 48 hrs by sulforhodamine B assay relative to control. In kind it is functional. To be noted: HOP-62, 48 h, read-out: Activity.
The test system of assay [1] is ACHN. The assay can be described thus: Growth inhibition of human ACHN cells assessed as cell growth at 0.1 uM incubated for 48 hrs by sulforhodamine B assay relative to control. In kind it is functional. To be noted: read-out: Activity.
The subject of a further assay is UACC-257. Briefly: Growth inhibition of human UACC257 cells assessed as cell growth at 0.1 uM incubated for 48 hrs by sulforhodamine B assay relative to control. In kind it is functional. Particulars: UACC-257, 48 h, read-out: Activity.
Assay [2] has as its system ACHN. The assay can be described thus: Growth inhibition of human ACHN cells assessed as cell growth at 0.01 uM incubated for 48 hrs by sulforhodamine B assay relative to control. In kind it is functional. Particulars: read-out: Activity.
The subject of another assay is MCF7. The assay can be described thus: Growth inhibition of human MCF7 cells assessed as cell growth at 0.01 uM incubated for 48 hrs by sulforhodamine B assay relative to control. The format is functional. To be noted: MCF7, 48 h, read-out: Activity.
Another assay concerns HOP-92. The assay can be described thus: Growth inhibition of human HOP92 cells assessed as cell growth at 10 uM incubated for 48 hrs by sulforhodamine B assay relative to control. In kind it is functional. To be noted: HOP-92, 48 h, read-out: Activity.
Where [3] appears, read: read-out: LC50 (the source's name).
The mark [4] stands for this setting: read-out: pLC50 (the source's name) (converted).

Take `COc1cc(Cl)cc(-c2nn(-c3cccc(NC(=O)Nc4ccc(Cl)c(C(F)(F)F)c4)c3)cc2-c2ccncc2)c1`: the values for the GI50 in the assay with CCRF-CEM (read-out: GI50), in the assay with SF-295 (read-out: GI50) and in the assay on SF-295 (read-out: pGI50 (converted)) were 0.613 µM, 0.455 µM and 0.468 µM, respectively. Also, the CC50 was greater than 100 µM in the assay with CCRF-CEM (setting [3]), greater than 100 µM in the assay on CCRF-CEM (setting [4]), 5.15 µM with SF-295 (setting [3]) and 6.17 µM in the assay with SF-295 (setting [4]). Moreover, the values for the TGI with CCRF-CEM (read-out: TGI), with SF-295 (read-out: TGI) and in the assay on SF-295 (read-out: pTGI (converted)) were 35.5 µM, 20 µM and 2 µM, respectively. Further, the growth at 0.1 µM with NCI-H226 came out at 96%; with HOP-62 it was 104%; in the assay on ACHN [1], 57%; in the assay on UACC-257, 59%. Moreover, the growth at 0.01 µM in the assay with A498 came out at 57%; in the assay on K562, 94%; in the assay with ACHN [2], 91%; with MCF7, 90%. Moreover, the growth at 1 µM in the assay on HT-29 stood at 55%.

As for `O=C(Nc1cccc(-n2cc(-c3ccncc3)c(-c3cc(O)cc(Cl)c3)n2)c1)c1cc(C(F)(F)F)cc(C(F)(F)F)c1`, the GI50 is 2.58 µM in the assay with CCRF-CEM (read-out: GI50), 2.69 µM in the assay with CCRF-CEM (read-out: pGI50 (converted)), 2.37 µM with SF-295 (read-out: GI50) and 2.4 µM in the assay on SF-295 (read-out: pGI50 (converted)). Further, the CC50 with CCRF-CEM (setting [3]), with CCRF-CEM (setting [4]), in the assay with SF-295 (setting [3]) and in the assay with SF-295 (setting [4]) was greater than 100 µM in each case. The TGI in the assay on CCRF-CEM (read-out: TGI) was greater than 100 µM; in the assay with CCRF-CEM (read-out: pTGI (converted)), greater than 100 µM; in the assay on SF-295 (read-out: TGI), 71.5 µM; in the assay on SF-295 (read-out: pTGI (converted)), 7.08 µM. Also, the growth at 0.1 µM in the assay with NCI-H226 came out at 95%; in the assay on HOP-62 it was 100%; in the assay on ACHN [1], 98%; in the assay with UACC-257, 98%. Besides, the growth at 0.01 µM in the assay with A498 is 53%; in the assay on K562 it was 99%; with ACHN [2] it was 105%; with MCF7, 58%. Further, the growth at 1 µM in the assay on HT-29 turned out to be 79%.

Take `COc1cc(Cl)cc(-c2nn(-c3cccc(NC(=O)c4ccc(N5CCOCC5)c(C(F)(F)F)c4)c3)cc2-c2ccncc2)c1`: the GI50 was 3.58 µM in the assay with CCRF-CEM (read-out: GI50), 3.89 µM in the assay with CCRF-CEM (read-out: pGI50 (converted)), 2.71 µM in the assay on SF-295 (read-out: GI50) and 2.19 µM in the assay with SF-295 (read-out: pGI50 (converted)). The CC50 with CCRF-CEM (setting [3]), with CCRF-CEM (setting [4]), with SF-295 (setting [3]) and with SF-295 (setting [4]) was greater than 100 µM throughout. Further, the TGI with CCRF-CEM (read-out: TGI) is greater than 100 µM; in the assay on CCRF-CEM (read-out: pTGI (converted)), greater than 100 µM; in the assay on SF-295 (read-out: TGI) it was 14.8 µM; in the assay on SF-295 (read-out: pTGI (converted)) it was 14.8 µM. Moreover, the growth at 0.1 µM is 98% in the assay on NCI-H226, 105% in the assay with HOP-62, 91% in the assay on ACHN [1] and 97% in the assay on UACC-257. The growth at 0.01 µM with A498 was 59%; with K562, 100%; with ACHN [2] it was 100%; in the assay on MCF7 it was 91%. In addition, the growth at 1 µM in the assay with HT-29 came out at 93%.

Take `COc1cc(Cl)cc(-c2nn(-c3cccc(NC(=O)c4cc(C(F)(F)F)cc(C(F)(F)F)c4)c3)cc2-c2ccncc2)c1`: the growth at 10 µM in the assay with HOP-92 turned out to be 46.8%.

Turning to `COc1cc(Cl)cc(-c2nn(-c3cccc(NC(=O)c4cccc(C(F)(F)F)c4)c3)cc2-c2ccncc2)c1`, the GI50 is 4.38 µM in the assay on CCRF-CEM (read-out: GI50), 4.37 µM with CCRF-CEM (read-out: pGI50 (converted)) and 3.89 µM with SF-295 (read-out: pGI50 (converted)). For the same compound, the CC50 in the assay on CCRF-CEM (setting [3]), with CCRF-CEM (setting [4]), with SF-295 (setting [3]) and with SF-295 (setting [4]) was greater than 100 µM in each case. Further, the TGI in the assay on CCRF-CEM (read-out: TGI), in the assay on CCRF-CEM (read-out: pTGI (converted)), in the assay with SF-295 (read-out: TGI) and in the assay on SF-295 (read-out: pTGI (converted)) was greater than 100 µM throughout. Moreover, the growth at 0.1 µM with NCI-H226 amounted to 90%; with HOP-62 it was 101%; in the assay with ACHN [1] it was 98%; in the assay on UACC-257, 91%. In addition, the growth at 0.01 µM amounted to 58% in the assay on A498, 108% with K562, 98% in the assay with ACHN [2] and 93% with MCF7. For the same compound, the growth at 1 µM with HT-29 was 70%.

Turning to `COc1cc(Cl)cc(-c2nn(-c3cccc(NC(=O)Nc4ccc(Cl)c(Cl)c4)c3)cc2-c2ccncc2)c1`, the GI50 was 2 µM with CCRF-CEM (read-out: GI50), 2 µM in the assay on CCRF-CEM (read-out: pGI50 (converted)), 1.37 µM in the assay with SF-295 (read-out: GI50) and 1.78 µM in the assay with SF-295 (read-out: pGI50 (converted)). Also, the CC50 in the assay with CCRF-CEM (setting [3]), with CCRF-CEM (setting [4]), in the assay with SF-295 (setting [3]) and in the assay with SF-295 (setting [4]) was greater than 100 µM in each case. For the same compound, the TGI was 50 µM in the assay on CCRF-CEM (read-out: TGI), 6.03 µM with CCRF-CEM (read-out: pTGI (converted)), 72.1 µM with SF-295 (read-out: TGI) and 7.24 µM in the assay on SF-295 (read-out: pTGI (converted)). In addition, the growth at 0.1 µM in the assay on NCI-H226 was determined as 96%; in the assay on HOP-62, 94%; in the assay on ACHN [1], 96%; in the assay with UACC-257, 96%. Besides, the growth at 0.01 µM was determined as 96% with A498, 101% in the assay on K562, 102% in the assay with ACHN [2] and 94% in the assay on MCF7. Besides, the growth at 1 µM with HT-29 is 62%.

For the compound `O=C(Nc1cccc(-n2cc(-c3ccncc3)c(-c3cc(O)cc(Cl)c3)n2)c1)c1ccc(N2CCOCC2)c(C(F)(F)F)c1`, the GI50 is 0.543 µM with CCRF-CEM (read-out: GI50), 0.562 µM in the assay on CCRF-CEM (read-out: pGI50 (converted)), 0.514 µM with SF-295 (read-out: GI50) and 0.617 µM in the assay on SF-295 (read-out: pGI50 (converted)). For the same compound, the CC50 is greater than 100 µM in the assay with CCRF-CEM (setting [3]), greater than 100 µM in the assay with CCRF-CEM (setting [4]), 25.1 µM in the assay with SF-295 (setting [3]) and 28.2 µM in the assay with SF-295 (setting [4]). For the same compound, the TGI in the assay with CCRF-CEM (read-out: TGI) is greater than 100 µM; in the assay on CCRF-CEM (read-out: pTGI (converted)), greater than 100 µM; with SF-295 (read-out: TGI) it was 27.8 µM; in the assay on SF-295 (read-out: pTGI (converted)), 2.75 µM. The growth at 0.1 µM turned out to be 93% with NCI-H226, 112% with HOP-62, 99% with ACHN [1] and 91% with UACC-257. The growth at 0.01 µM in the assay with A498 was determined as 97%; in the assay with K562, 113%; in the assay with ACHN [2], 100%; with MCF7 it was 91%. In the assay with HT-29, the growth at 1 µM turned out to be 94%.

For the compound `O=C(Nc1cccc(-n2cc(-c3ccncc3)c(-c3cc(O)cc(Cl)c3)n2)c1)Nc1ccc(Cl)c(C(F)(F)F)c1`, the GI50 was 2.73 µM with CCRF-CEM (read-out: GI50), 2.75 µM with CCRF-CEM (read-out: pGI50 (converted)), 2.06 µM in the assay on SF-295 (read-out: GI50) and 2.57 µM in the assay on SF-295 (read-out: pGI50 (converted)). Also, the CC50 in the assay on CCRF-CEM (setting [3]) is greater than 100 µM; with CCRF-CEM (setting [4]), greater than 100 µM; with SF-295 (setting [3]), 17 µM; in the assay on SF-295 (setting [4]), 17.8 µM. The TGI in the assay on CCRF-CEM (read-out: TGI) is 85 µM; in the assay on CCRF-CEM (read-out: pTGI (converted)), 8.91 µM; with SF-295 (read-out: TGI) it was 49.6 µM; in the assay with SF-295 (read-out: pTGI (converted)), 4.9 µM. The growth at 0.1 µM with NCI-H226 was 95%; in the assay on HOP-62, 97%; in the assay on ACHN [1], 93%; with UACC-257 it was 91%. The growth at 0.01 µM in the assay on A498 was 58%; with K562, 101%; with ACHN [2], 104%; in the assay on MCF7 it was 90%. Moreover, the growth at 1 µM in the assay on HT-29 is 99%.

For the origin of these results see ChEMBL document CHEMBL4308841, “Synthesis, in vitro antiproliferative activity, and kinase inhibitory effects of pyrazole-containing diarylureas and diarylamides” (Eur J Med Chem, 2018).
